# Test results as given in patent US20160130554A1, “Reprogramming Mesenchymal Stromal Cells Into Hematopoietic Cells” (Wake Forest University Health Sciences, priority 2014, published 2016).
# Legend:
# [1] = system: SIPs; experiment: In vitro reprogramming of SIPs, flow cytometry for hematopoietic surface markers; type: cell-based, human; conditions: the two small molecules alone, without RUNX1C
# Text: Heparinized human BM was obtained from healthy donors after informed consent, according to guidelines from the Office of Human Research Protection at the University of Nevada at Reno, Wake Forest Health Sciences, or from commercially available sources (AllCells, LLC, Alameda Calif.). Low density BM mononuclear cells (BMNC) were separated by Ficoll density gradient (1.077 g/ml Sigma, St. Louis, Mo.) and washed twice in Iscove's modified Dulbecco's medium (Invitrogen, Carlsbad, Calif.). Stro-1+ MSC were then isolated using anti-Stro-1 antibody (R&D Systems, Minneapolis, Minn.) and magnetic bead cell sorting (Miltenyi Biotec, Inc., Auburn, Calif.) according to manufacturer's guidelines. Stro-1+ cells were then cultured at low density in 0.02% gelatin (Sigma, St Louis, Mo.) coated flasks using Mesenchymal Stem Cell Growth Medium (MSCGM™, Lonza, Walkersville, Md.) in a humidified 37° C. incubator at 5% CO2.
# BM-MSC were transduced on 6-well plates with Oct4- or RUNX1C-encoding lentiviral vector, alone or in combination (or an eGFP-encoding lentiviral vector as a control), at a multiplicity of infection (MOI) of 50 for each vector. Twenty four hours after transduction, the vector-containing media was removed and replaced with fresh MSCGM™ (Lonza). […]
# [2] = system: SIPs; experiment: Culture conditions for reprogramming of SIPs (data not shown); type: cell-based, human; conditions: the two factors alone, preliminary studies
# Text: Cultures may be performed in defined serum-free media. This will to facilitate clinical grade production of hematopoietic cells. SIPS ([…]) may be plated in 100 mm gelatin-coated culture plates using serum-free TheraPEAK® MSCGM-CD Mesenchymal Stem Cell Medium (Lonza). Sixteen hours later they may be transduced overnight with the lentivector encoding RUNX1c at an MOI of ˜10. A control group may be transduced with an identical lentivector expressing EGFP to judge transduction efficiency (usually ˜80-90%) and to assess the precision of the cumate “switch”. The following day, the medium may be changed to DMEM/F12/+20% KOSR/1×NEAA/0.1 mM 2-ME/containing rhFGF2 (20 ng/ml) and rhIGFII (30 ng/ml). […] At the same time, media may be supplemented with cumate to turn on expression of RUNX1c (or EGFP) and with VPA (1 mM final concentration) and Bix-01294 (2 μM final concentration).
# In order to facilitate differentiation of the HSC into all lineages or into hematopoietic cells having good engraftment potential, additional growth factors, such as TPO and BMP4, may be incorporated into the culture medium. […]
compound,measurement,setting,value
COc1cc2nc(N3CCCN(C)CC3)nc(NC3CCN(Cc4ccccc4)CC3)c2cc1OC [Bix-01294],expression of CD41 or CD34,[1],did not induce significant expression
rhIGFII: recombinant human IGF-II medium supplement,reprogramming of SIPs to the hematopoietic lineage,[2],some ability to support some degree of reprogramming
"CCCC(CCC)C(=O)O [VPA, valproic acid]",expression of CD41 or CD34,[1],did not induce significant expression
rhFGF2: recombinant human FGF2 medium supplement,reprogramming of SIPs to the hematopoietic lineage,[2],some ability to support some degree of reprogramming
